Holding throughout (format): biochemical
Assay [1] concerns the target T1, recombinant human DAO (diamine oxidase) (Homo sapiens, UniProt P19801).
T1 construct: purchased R&D systems
T1 sequence (P19801 20-751): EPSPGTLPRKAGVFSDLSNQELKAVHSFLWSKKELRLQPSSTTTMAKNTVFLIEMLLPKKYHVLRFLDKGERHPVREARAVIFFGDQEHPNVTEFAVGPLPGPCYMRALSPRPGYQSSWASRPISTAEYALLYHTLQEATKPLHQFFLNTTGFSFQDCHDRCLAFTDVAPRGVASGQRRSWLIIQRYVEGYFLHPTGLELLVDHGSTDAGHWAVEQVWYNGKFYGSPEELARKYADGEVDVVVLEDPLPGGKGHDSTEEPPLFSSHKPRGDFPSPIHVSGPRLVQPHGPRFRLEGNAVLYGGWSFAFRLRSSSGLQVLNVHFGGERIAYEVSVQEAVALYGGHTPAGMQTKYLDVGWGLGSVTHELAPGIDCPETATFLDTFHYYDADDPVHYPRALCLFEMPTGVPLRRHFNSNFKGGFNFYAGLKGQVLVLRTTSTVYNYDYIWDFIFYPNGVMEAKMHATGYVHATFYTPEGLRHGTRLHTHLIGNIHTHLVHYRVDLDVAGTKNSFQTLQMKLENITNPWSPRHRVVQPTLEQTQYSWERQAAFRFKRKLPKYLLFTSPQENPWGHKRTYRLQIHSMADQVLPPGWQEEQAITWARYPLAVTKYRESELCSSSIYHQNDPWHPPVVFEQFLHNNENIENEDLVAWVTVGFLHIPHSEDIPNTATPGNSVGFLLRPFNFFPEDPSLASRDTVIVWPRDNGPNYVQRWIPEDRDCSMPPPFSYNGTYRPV
In words: Amplex Red HRP-coupled amine oxidase activity evaluation, recombinant human DAO. The protocol: [The source words this procedure for another target and says it was used here with some conditions changed.] (§1) The compounds according to the present technology were evaluated in terms of activity on recombinant human VAP-1 (R&D systems) by measuring the level of hydrogen peroxide in horseradish peroxidase (HRP)-coupled reaction using Amplex Red Hydrogen Peroxide Assay Kit (Molecular Probes, Invitrogen, USA). The experiment was carried out at room temperature using benzylamine as a substrate. In the HRP-coupled reaction, hydrogen peroxide oxidation of 10-acetyl-3,7-dihydroxyphenoxazine (Amplex Red reagent) produces resorufin, which is a highly fluorescent compound. Briefly, the test compound was dissolved in dimethyl sulfoxide (DMSO) at a concentration of 20 mM. The dose-response assessment was made by 1:3 serial dilution in DMSO, thereby creating an 8-point curve. The concentration of the upper part was controlled according to the efficacy of the compounds, followed by dilution with a reaction buffer solution to obtain a final DMSO concentration of less than 1%. To each well of a 96 black well plate, human VAP-1 purified in 50 mM sodium phosphate buffer solution (pH7.4) was added. The test compounds dissolved in DMSO were incubated with the human VAP-1 enzymes at 37° C. for 30 minutes. After 30-minute incubation, each well was added with a reaction mixture containing 200 uM Amplex Red reagent prepared from 50 mM sodium phosphate buffer solution (pH 7.4), 1 mM benzylamine, and 1 U/mL HRP. Fluorescence intensity was measured at several time points during 1-2 hours using a microplate reader (Flexstation3, Molecular Devices) under the wavelength condition exciting at 544 nm and reading the emission at 590 nm. The inhibitory effect of the compounds was measured as a decrease (%) in the signal rate as compared to the control group without any inhibitor (only diluted DMSO). Data was fixed to a logistic model with four variables and IC50 value was calculated using GraphPad Prism program.

The next assay has as its target T2, recombinant human VAP-1 (Homo sapiens, UniProt Q16853).
T2 construct: purchased R&D systems
T2 sequence (Q16853 1-763): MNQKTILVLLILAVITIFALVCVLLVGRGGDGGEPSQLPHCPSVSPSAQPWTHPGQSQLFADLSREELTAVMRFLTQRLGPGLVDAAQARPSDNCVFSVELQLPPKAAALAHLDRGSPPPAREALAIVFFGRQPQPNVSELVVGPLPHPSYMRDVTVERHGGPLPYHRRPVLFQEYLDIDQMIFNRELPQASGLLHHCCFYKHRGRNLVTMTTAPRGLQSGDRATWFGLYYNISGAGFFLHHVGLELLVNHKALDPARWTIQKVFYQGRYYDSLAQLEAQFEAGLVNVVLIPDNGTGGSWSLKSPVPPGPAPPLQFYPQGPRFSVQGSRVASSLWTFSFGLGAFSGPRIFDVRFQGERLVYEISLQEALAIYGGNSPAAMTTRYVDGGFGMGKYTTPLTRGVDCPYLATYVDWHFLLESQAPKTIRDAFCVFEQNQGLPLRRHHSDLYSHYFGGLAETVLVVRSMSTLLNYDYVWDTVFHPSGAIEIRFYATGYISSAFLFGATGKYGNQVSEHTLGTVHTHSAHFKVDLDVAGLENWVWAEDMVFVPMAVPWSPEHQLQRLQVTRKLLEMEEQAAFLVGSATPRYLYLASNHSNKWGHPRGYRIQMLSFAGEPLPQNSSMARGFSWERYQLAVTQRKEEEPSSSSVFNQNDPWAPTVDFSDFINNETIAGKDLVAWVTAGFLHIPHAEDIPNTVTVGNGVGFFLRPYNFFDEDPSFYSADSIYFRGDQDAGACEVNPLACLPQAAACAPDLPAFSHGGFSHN
The experiment in a line: Amplex Red HRP-coupled amine oxidase activity evaluation, recombinant human VAP-1. As to conditions: substrate 1 mM benzylamine; 30 min preincubation at 37° C.; read-out: Inhibitory Activity (IC50, nM) human VAP-1. The protocol: as §1

For assay [2], the target named is T3, recombinant human MAO-A (monoamine oxidase-A) (Homo sapiens, UniProt P21397).
T3 construct: purchased Sigma-Aldrich
T3 sequence (P21397 1-527): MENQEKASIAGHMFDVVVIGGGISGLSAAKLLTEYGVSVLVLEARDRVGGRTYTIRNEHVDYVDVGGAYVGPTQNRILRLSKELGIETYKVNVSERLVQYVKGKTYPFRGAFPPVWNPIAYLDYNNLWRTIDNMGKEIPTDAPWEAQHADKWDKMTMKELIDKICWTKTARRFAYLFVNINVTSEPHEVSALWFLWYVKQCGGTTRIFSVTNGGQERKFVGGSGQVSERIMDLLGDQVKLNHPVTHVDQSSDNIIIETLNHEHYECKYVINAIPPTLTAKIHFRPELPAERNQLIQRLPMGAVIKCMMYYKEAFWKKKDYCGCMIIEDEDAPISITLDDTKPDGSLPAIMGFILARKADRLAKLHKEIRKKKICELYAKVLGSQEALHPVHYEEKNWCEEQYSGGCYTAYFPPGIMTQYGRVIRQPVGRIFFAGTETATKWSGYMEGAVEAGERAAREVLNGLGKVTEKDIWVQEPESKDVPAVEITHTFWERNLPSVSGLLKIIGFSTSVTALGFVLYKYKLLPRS
The experiment in a line: Amplex Red HRP-coupled amine oxidase activity evaluation, recombinant human MAO-A. As to conditions: substrate 0.5 mM tyramine; read-out: Inhibitory Activity (IC50, nM) MAO-A. How it is done:
[The source words this procedure for another target and says it was used here with some conditions changed.] as §1

The target in assay [3] is T4, recombinant human MAO-B (monoamine oxidase-B) (Homo sapiens, UniProt P27338).
T4 construct: purchased Sigma-Aldrich
T4 sequence (P27338 1-520): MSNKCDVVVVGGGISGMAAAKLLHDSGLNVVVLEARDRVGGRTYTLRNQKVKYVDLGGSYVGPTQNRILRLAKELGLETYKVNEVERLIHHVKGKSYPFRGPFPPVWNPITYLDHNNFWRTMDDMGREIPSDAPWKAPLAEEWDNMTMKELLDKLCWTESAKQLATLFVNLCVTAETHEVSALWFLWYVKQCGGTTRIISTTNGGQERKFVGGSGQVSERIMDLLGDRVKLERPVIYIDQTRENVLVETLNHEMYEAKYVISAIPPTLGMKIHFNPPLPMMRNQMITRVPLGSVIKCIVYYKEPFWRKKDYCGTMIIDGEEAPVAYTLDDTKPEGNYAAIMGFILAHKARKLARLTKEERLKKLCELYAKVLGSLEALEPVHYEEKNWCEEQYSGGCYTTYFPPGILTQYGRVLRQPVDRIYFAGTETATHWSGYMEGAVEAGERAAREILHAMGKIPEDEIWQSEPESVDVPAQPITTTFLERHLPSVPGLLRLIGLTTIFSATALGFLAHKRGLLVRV
The experiment in a line: Amplex Red HRP-coupled amine oxidase activity evaluation, recombinant human MAO-B. As to conditions: substrate 1 mM benzylamine; read-out: Inhibitory Activity (IC50, nM) MAO-B. The protocol:
[The source words this procedure for another target and says it was used here with some conditions changed.] as §1

Where [4] appears, read: substrate 1 mM putrescine, read-out: Inhibitory Activity (IC50, nM) DAO.

Each structure is given as a SMILES string. Where a name gives a salt, the structure may show the parent alone. Read-outs that look alike come from different tables or passages of the source.

As to `CCn1cc(-c2ccc(-n3nnn(CC(CN)=C(F)F)c3=O)cc2)cn1` [Example 22, 1-[2-(aminomethyl)-3,3-difluoro-allyl]-4-[4-(1-ethylpyrazol-4-yl)phenyl]tetrazol-5-one trifluoroacetate], the IC50 (commonly the concentration that gives 50% inhibition) in assay [1] came to 95 nM; at recombinant human VAP-1, 0.3 nM; in assay [2], 98400 nM; in assay [3], 74 nM.
As for `Cc1ccc(-c2ccc(S(C)(=O)=O)cc2)nc1-n1nnn(CC(CN)=C(F)F)c1=O` [Example 23, 1-[2-(aminomethyl)-3,3-difluoro-allyl]-4-[3-methyl-6-(4-methylsulfonylphenyl)-2-pyridyl]tetrazol-5-one trifluoroacetate], the IC50 in assay [1] (setting [4]) is over 100000 nM; at recombinant human VAP-1 it was over 100 nM; in assay [2], over 100000 nM; in assay [3], 59400 nM.
For `CCn1cc(-c2ccc(C)c(-n3nnn(CC(CN)=C(F)F)c3=O)n2)ccc1=O` [Example 24, 5-[6-[4-[2-(aminomethyl)-3,3-difluoro-allyl]-5-oxo-tetrazol-1-yl]-5-methyl-2-pyridyl]-1-ethyl-pyridin-2-one trifluoroacetate], the half-maximal inhibitory concentration (IC50) is over 100000 nM in assay [1] (setting [4]), over 100 nM on recombinant human VAP-1, over 100000 nM in assay [2] and over 100000 nM in assay [3].
Consider `Cc1ccc(-c2cc(C)c3c(c2)CCC(=O)N3)nc1-n1nnn(CC(CN)=C(F)F)c1=O` [Example 25, 6-[6-[4-[2-(aminomethyl)-3,3-difluoro-allyl]-5-oxo-tetrazol-1-yl]-5-methyl-2-pyridyl]-8-methyl-3,4-dihydro-1H-quinolin-2-one trifluoroacetate], for which the IC50 in assay [1] is 1110 nM; on recombinant human VAP-1, 13 nM; in assay [2], over 100000 nM; in assay [3] it was over 100000 nM.
In the case of `Cc1ccc(-c2ccc3c(c2)CCC(=O)N3C)nc1-n1nnn(CC(CN)=C(F)F)c1=O` [Example 26, 6-[6-[4-[2-(aminomethyl)-3,3-difluoro-allyl]-5-oxo-tetrazol-1-yl]-5-methyl-2-pyridyl]-1-methyl-3,4-dihydroquinolin-2-one trifluoroacetate], the concentration for half-maximal inhibition (IC50) in assay [1] is 4370 nM; on recombinant human VAP-1 it was 19 nM; in assay [2], over 100000 nM; in assay [3] it was over 100000 nM.
In the case of `CS(=O)(=O)c1ccc(-c2cccc(Cn3nnn(CC(CN)=C(F)F)c3=O)c2)cc1` [Example 27, 1-[2-(aminomethyl)-3,3-difluoro-allyl]-4-[[3-(4-methylsulfonylphenyl)phenyl]methyl]tetrazol-5-one trifluoroacetate], the IC50 is 513 nM in assay [1] (setting [4]), 1 nM on recombinant human VAP-1, over 100000 nM in assay [2] and 48400 nM in assay [3].
Turning to `NCC(Cn1nnn(Cc2cccc(-c3ccc(N4CCNCC4)cc3)c2)c1=O)=C(F)F` [Example 28, 1-[2-(aminomethyl)-3,3-difluoro-allyl]-4-[[3-(4-piperazin-1-ylphenyl)phenyl]methyl]tetrazol-5-one di-trifluoroacetate], the IC50 came out at 5160 nM in assay [1] (setting [4]), 1.8 nM on recombinant human VAP-1, 33000 nM in assay [2] and 35800 nM in assay [3].
Turning to `CN(C)c1ccc(-c2cccc(Cn3nnn(CC(CN)=C(F)F)c3=O)c2)cn1` [Example 29, 1-[2-(aminomethyl)-3,3-difluoro-allyl]-4-[[3-[6-(dimethylamino)-3-pyridyl]phenyl]methyl]tetrazol-5-one trifluoroacetate], the IC50 in assay [1] (setting [4]) turned out to be 159 nM; on recombinant human VAP-1, 0.7 nM; in assay [2], 80100 nM; in assay [3], 14300 nM.
As to `NCC(Cn1nnn(Cc2cccc(-c3ccc4c(c3)OCO4)c2)c1=O)=C(F)F` [Example 30, 1-[2-(aminomethyl)-3,3-difluoro-allyl]-4-[[3-(1,3-benzodioxol-5-yl)phenyl]methyl]tetrazol-5-one trifluoroacetate], the concentration for half-maximal inhibition (IC50) in assay [1] (setting [4]) was 1500 nM; at recombinant human VAP-1, 0.8 nM; in assay [2], 70900 nM; in assay [3] it was 206 nM.
On to `Cc1cc(-c2cccc(Cn3nnn(CC(CN)=C(F)F)c3=O)c2)cc2c1NC(=O)CC2` [Example 31, 6-[3-[[4-[2-(aminomethyl)-3,3-difluoro-allyl]-5-oxo-tetrazol-1-yl]methyl]phenyl]-8-methyl-3,4-dihydro-1H-quinolin-2-one trifluoroacetate], for which the IC50 was 127 nM in assay [1] (setting [4]), 0.6 nM at recombinant human VAP-1, 82100 nM in assay [2] and 9000 nM in assay [3].

The values above are taken from patent US12110279B2, “Triazolones, tetrazolones, and imidazolones, or their salts, and pharmaceutical compositions comprising the same” (Yuhan Corporation, priority 2021, dated 2024).
